Measurements taken from ChEMBL document CHEMBL4052749, “Selective inhibitors of human mPGES-1 from structure-based computational screening” (Bioorg Med Chem Lett, 2017).

Assays:
[1] = biological target: T1, Prostaglandin E synthase (Homo sapiens) (UniProt O14684); assay: Inhibition of human mPGES-1 expressed in 293-F cells using PGH2 as substrate preincubated for 15 mins followed by substrate addition measured after 30 secs at 10 uM by enzyme immunoassay
T1 sequence (whole entry): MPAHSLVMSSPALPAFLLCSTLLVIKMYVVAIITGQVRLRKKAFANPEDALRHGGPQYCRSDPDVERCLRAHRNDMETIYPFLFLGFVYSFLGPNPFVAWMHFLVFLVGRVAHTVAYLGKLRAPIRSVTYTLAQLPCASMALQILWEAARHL

[2] = biological target: T2, Prostaglandin E synthase (Homo sapiens, UniProt O14684); assay: Inhibition of human mPGES-1 expressed in 293-F cells using PGH2 as substrate preincubated for 15 mins followed by substrate addition measured after 30 secs enzyme immunoassay; type: cell-based
T2 sequence (O14684 whole entry): T1 sequence (whole entry)

[3] = tested on: COX1/COX2 (ovine COX1, human COX2; the isoform is not stated for the values); assay: Inhibition of ovine COX1/human COX2 assessed as reduction in PGH2 production by measuring PGF2alpha at 100 uM using PG-acetylcholinesterase as tracer by colorimetry; conditions: ovine COX1/human COX2 enzymes
[4] = Inhibition of ovine COX1/human COX2 assessed as reduction in PGH2 production by measuring PGF2alpha using PG-acetylcholinesterase as tracer by colorimetry

| Structure (SMILES) | inhibition [1] | other results |
| --- | --- | --- |
| O=P1(N(CCCl)CCCl)N(Cc2ccc(Cl)c(Cl)c2)CCCN1Cc1ccc(Cl)c(Cl)c1 | 65% |  |
| O=C(N/N=C\c1ccccc1/C=N\NC(=O)Nc1ccc(/N=N/c2ccccc2)cc1)Nc1ccc(/N=N/c2ccccc2)cc1 | 71% |  |
| CC[n+]1ccc(Nc2ccc(NC(=O)c3ccc(Nc4cc[n+](CC)c5ccc([N+](=O)[O-])cc45)cc3)cc2)cc1 | 70% |  |
| CCCCCCCCCCCCc1ccc(NC2=C(Cl)C(=O)C(Nc3ccc(CCCCCCCCCCCC)cc3)=C(Cl)C2=O)cc1 | 49% |  |
| O=C(Nc1cccc2c(OC(=O)C(Cl)Cl)c(/C=C/c3ccc(S(=O)(=O)Nc4nccs4)cc3)cc(/N=N/c3ccc(S(=O)(=O)Nc4nccs4)cc3)c12)C(Cl)Cl | 10% |  |
| C[n+]1ccc(Nc2ccc(NC(=O)c3ccc(Nc4cc[n+](C)c5ccc(N)cc45)cc3N)cc2)cc1 | 30% |  |
| CC(=O)O[C@H]1CC[C@]2(C)C3C[C@@]4(C)C(CCC4[C@@H](C)CCCC(C)C)C[C@]3(C#N)n3c(=O)n(-c4ccccc4)c(=O)n3[C@]2(C#N)C1 (some centres undefined) | 99% | IC50 [2]: 276 nM; inhibition at 100 µM [3]: 14% |
| CC(=O)N[C@H]1[C@@H](OCc2ccccc2)O[C@H](CO)[C@H](O)[C@@H]1C[C@H](C)C(=O)N[C@@H](C)C(=O)N[C@H](CCC(=O)OCCNc1c2ccccc2nc2cccc([N+](=O)[O-])c12)C(N)=O | 37% |  |
| COc1ccc(C(=O)COC(=O)[C@H](C[Se][Se]C[C@H](NC(=O)c2ccc(Br)cc2F)C(=O)OCC(=O)c2ccc(OC)cc2)NC(=O)c2ccc(Br)cc2F)cc1 | 65% |  |
| N#Cc1cccc(C2C(=O)c3c(c(-c4ccccc4)c(-c4ccc(Sc5ccc(-c6c(-c7ccccc7)c7c(c(-c8ccccc8)c6-c6ccccc6)C(=O)N(c6cccc(C#N)c6)C7=O)cc5)cc4)c(-c4ccccc4)c3-c3ccccc3)C2=O)c1 (centres undefined) | 100% | IC50 [2]: 439 nM; inhibition at 100 µM [3]: 9% |
| CN(Cc1ccc(Cl)cc1)C(=O)NCCCCCCNC(=O)N(C)Cc1ccc(Cl)cc1 | 64% |  |
| Cc1ccc(NC(=O)c2cc(S(=O)(=O)Nc3n[nH]c(=O)[nH]3)c(SSc3cc(Cl)c(C(=O)Nc4ccc(C)cc4)cc3S(=O)(=O)Nc3n[nH]c(=O)[nH]3)cc2Cl)cc1 | 47% |  |
| Cc1cc(NS(=O)(=O)c2ccc(/N=N/c3cc(/N=N/c4ccc(S(=O)(=O)Nc5cc(C)nc(C)n5)cc4)c4c(NC(=O)C(Cl)Cl)cccc4c3OC(=O)C(Cl)Cl)cc2)nc(C)n1 | 46% |  |
| O=[N+]([O-])c1ccc(CSc2ncc(Br)c(SCc3ccc([N+](=O)[O-])cc3)n2)cc1 | 26% |  |
| C[C@@H]1c2c(cc(OC(=O)c3cccc(S(=O)(=O)F)c3)nc2OC(=O)c2cccc(S(=O)(=O)F)c2)C(=O)N1Cc1ccccc1 | 15% |  |
| Cn1c2ccccc2c(=S)c2cc(NC(=O)CCCCC(=O)Nc3ccc4c(c3)c(=S)c3ccccc3n4C)ccc21 | 25% |  |
| Cc1noc(NS(=O)(=O)c2ccc(/N=N/c3cc(/N=N/c4ccc(S(=O)(=O)Nc5onc(C)c5C)cc4)c4c(NC(=O)C(Cl)Cl)cccc4c3OC(=O)C(Cl)Cl)cc2)c1C | 43% |  |
| Cc1ccc(NC(=S)N2CCC(CCCC3CCN(C(=S)Nc4ccc(C)cc4C)CC3)CC2)c(C)c1 | 49% |  |
| CCCCOc1ccc(NC(=S)Nc2ccc(N(C)C)cc2)cc1 [THIAMBUTOSINE] | 99% | IC50 [2]: 370 nM; inhibition at 100 µM [3]: 1% |
| CC(C)(C)c1cc(OCc2nnc3sc(-c4ccc(Cl)cc4)nn23)c(Cl)cc1OCc1nnc2sc(-c3ccc(Cl)cc3)nn12 | 75% | IC50 [2]: 917 nM; inhibition at 100 µM [3]: 15% |

| Structure (SMILES) | inhibition [1] | other results |
| --- | --- | --- |
| O=[N+]([O-])c1ccc(N/N=C(\C=C\c2ccc3c(c2)OCO3)c2cnc(Nc3ccc(Cl)c(Cl)c3)s2)c([N+](=O)[O-])c1 | 98% | IC50 [2]: 284 nM; inhibition at 100 µM [3]: 8% |
| COc1ccc(N(Nc2ccc(Br)cc2)c2ccccc2N(Nc2ccc(Br)cc2)c2ccccc2OC)cc1 | 100% | IC50 [4]: > 100000 nM; IC50 [2]: 889 nM; inhibition at 100 µM [3]: 37% |
| CC1=NN(C(=O)CC(=O)Nc2ccccc2C)C(=O)[C@@H]1/C=N/c1ccc(S(=O)(=O)c2ccc(/N=N/[C@@H]3C(=O)N(C(=O)CC(=O)Nc4ccccc4C)N=C3C)cc2)cc1 | 36% |  |
| N#C[C@@H](c1ccccc1)N(CCCCCCN(C(=O)c1ccccc1)[C@@H](C#N)c1ccccc1)C(=O)c1ccccc1 | 40 to 44% |  |
| CC/C(=C(/CC)c1ccc(Oc2nc(N3CC3)nc(N3CC3)n2)cc1)c1ccc(Oc2nc(N3CC3)nc(N3CC3)n2)cc1 | 46% |  |
| CC(C)(C)OC(=O)N[C@H](Cc1ccc(OCc2ccccc2)cc1)C(=O)N[C@H](CCCCNC(=O)OCc1ccccc1)C(=O)ON1C(=O)CCC1=O | 32% |  |
| COc1ccc2nc3cc(Cl)ccc3c(SCC(=O)Nc3ccccc3-c3ccccc3NC(=O)CSc3c4ccc(Cl)cc4nc4ccc(OC)cc34)c2c1 | 57% |  |
| S=C(Nc1ccccc1)N1CCC(CCCC2CCN(C(=S)Nc3ccccc3)CC2)CC1 | 53% |  |
| CCOc1ccc(NC(=S)N2CCC(CCCC3CCN(C(=S)Nc4ccc(OCC)cc4)CC3)CC2)cc1 | 59% |  |
| Cc1ccccc1NC(=O)/C(Cc1nc2ccc(C(=O)c3ccccc3)cc2nc1O)=N\NC(=O)c1ccncc1 | 94% | IC50 [2]: 664 nM; inhibition at 100 µM [3]: 0% |
| O=C(OCCN(CCOC(=O)c1ccccc1)C(=O)N(CCOC(=O)c1ccccc1)CCOC(=O)c1ccccc1)c1ccccc1 | 46% |  |
| O=C(Nc1ccccc1)c1cc(S(=O)(=O)Nc2n[nH]c(=O)[nH]2)c(SSc2cc(Cl)c(C(=O)Nc3ccccc3)cc2S(=O)(=O)Nc2n[nH]c(=O)[nH]2)cc1Cl | 59% |  |
| O=C(Nc1ccc(Cl)cc1)Nc1nnc(-c2cccc(-c3nnc(NC(=O)Nc4ccc(Cl)cc4)o3)c2)o1 | 59% |  |
| CCCCCCCCCCCC(=O)Nc1ccc(SSc2ccc(NC(=O)CCCCCCCCCCC)cc2)cc1 | 70% |  |
| CCOC(=O)CC(=O)c1cn(CCCOC(=O)CCCCCCCCC(=O)OCCCn2cc(C(=O)CC(=O)OCC)c(=O)[nH]c2=O)c(=O)[nH]c1=O | 48% |  |
| CC(C)C(=O)OCC(C)(C)[C@H](OC(=O)COc1ccc(Cl)cc1Cl)C(C)C | 69% |  |
| O=c1oc2ccccc2n1P(=O)(N1CCOCC1)N1CCOCC1 | 29% |  |
| O=C(C[C@H](c1ccc2c(c1)OCO2)N1CCN([C@H](CC(=O)c2ccc(Br)cc2)c2ccc3c(c2)OCO3)CC1)c1ccc(Br)cc1 | 50% |  |
| O=C(C(=O)c1ccc(/N=C/c2ccc(N(CCCl)CCCl)cc2)cc1)c1ccc(/N=C/c2ccc(N(CCCl)CCCl)cc2)cc1 | 28% |  |
